In patent US20200270588A1, “GLUCOSYL TRANSFERASE POLYPEPTIDES AND METHODS OF USE” (Syngenta Participations AG, priority 2017, published 2020):
Numbering of substitutions follows the chain as printed. Numbers in names are those of the source.

T1: Zea mays bx9 glucosyl transferase (C-terminally his tagged SEQ ID NO: 1) (Zea mays, UniProt B4G072)
T1 construct: His tag (C); made in house; host or cells: E. coli BL21 (DE3), pET24a
T1 sequence (B4G072 1-462): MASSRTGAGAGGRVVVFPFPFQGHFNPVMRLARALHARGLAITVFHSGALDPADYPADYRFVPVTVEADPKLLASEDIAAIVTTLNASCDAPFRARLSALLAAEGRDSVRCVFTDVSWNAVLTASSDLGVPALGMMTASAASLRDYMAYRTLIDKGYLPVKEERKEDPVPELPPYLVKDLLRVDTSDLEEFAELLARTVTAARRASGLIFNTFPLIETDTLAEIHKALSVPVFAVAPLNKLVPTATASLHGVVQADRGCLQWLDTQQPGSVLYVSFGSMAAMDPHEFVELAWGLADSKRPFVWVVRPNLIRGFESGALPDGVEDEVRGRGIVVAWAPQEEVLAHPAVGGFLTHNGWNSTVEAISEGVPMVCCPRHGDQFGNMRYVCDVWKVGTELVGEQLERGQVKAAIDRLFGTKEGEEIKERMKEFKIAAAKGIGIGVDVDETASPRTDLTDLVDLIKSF

B1: T220F: bx9 SEQ ID NO:1 mutant (protein)
chain: T1 sequence (B4G072 1-462) with T220F
modifications: Zea mays
B2: T220W: bx9 SEQ ID NO:1 mutant (protein)
chain: T1 sequence (B4G072 1-462) with T220W
modifications: Zea mays
B3: T220P: bx9 SEQ ID NO:1 mutant (protein)
chain: T1 sequence (B4G072 1-462) with T220P
modifications: Zea mays
B4: T220H: bx9 SEQ ID NO:1 mutant (protein)
chain: T1 sequence (B4G072 1-462) with T220H
modifications: Zea mays

Tests used:
[1] = target: T2, SEQ ID NO 20, mutant of Zea mays bx9 glucosyl transferase (Zea mays, UniProt B4G072, A281K/A334K/F21Y/L194V/M279F/S117V); type: biochemical; conditions: lower block, concentration printed only in upper block: V 0.300, VII 0.210; IV, VIII, XI, XXI, XX, XVIII, XVI, XV, XIV 0.200; others 1.000 mM
T2 construct: His tag (C); made in house
Description: (§1) Glucosyl transferase activity is assayed via measurement of acceptor substrate-dependent production of UDP from ultrapure UDP-glucose using the Promega UDP-Glo™ method and according to the manufacturer's instructions. Assays are run in 96 well microtiter plates.
(§2) Enzyme, typically at a stock concentration of ˜2 mg/ml is diluted to an appropriate concentration in 50 mM K^+ Hepes buffer at pH7.5 containing 0.5 mg/mL bovine serum albumin (BSA) and 5 ul aliquots of this diluted enzyme added to each well of a Perkin Elmer white ½ area 96 well plate. […] Assays are run for an appropriate time (usually 10 to 60 min) so that the amount of UDP formed lies within the most nearly linear part of the UDP standard curve and are stopped with the addition and mixing of 25 ul UDP-Glo™ detection reagent (prepared as described below). Plates are then incubated at room temperature for 60 minutes and then read in a luminescence plate reader (Perkin Elmer Envision 2130 Multilabel Reader). A UDP standard curve is run alongside each set of assays and reagent blank control assays run with DMSO in place of test herbicide.
(§3) The UDP-Glo™ reagents are made up and used according to the manufacturer's instructions. Thus, Nucleotide Detection Buffer and ATP are combined to make nucleotide detection reagent (NDR) dispensed into aliquots and frozen to be freshly thawed before use.
(§4) Km and kcat values in respect of UDP-glucose are derived by carrying out experiments to measure initial rates over a suitable range of concentrations of UDP glucose out at a fixed near saturating concentration of acceptor substrate. Best fit values of kcat, Km and kcat/Km are obtained by direct fitting of the data to the Michaelis-Menten equation using Graphpad Prism™ software.
All of these proteins were C-terminally his-tagged, expressed and purified as described in Example 1. Assays were run and analyzed as described in example 1.

[2] = target: T1, Zea mays bx9 glucosyl transferase (C-terminally his tagged SEQ ID NO: 1); assay: UDP-Glo glucosyl transferase assay, purified enzyme; type: biochemical; conditions: for Activity: herbicide mM: V 0.300, VI 0.250, VII 0.210, IV, VIII, XI, XXI, XX, XVIII, XVI, XV, XIV 0.200, others 1.000
Description: as §1
as §2, with “herbicide. Typically, 300 pmol of UDP corresponds to a Relative Luminescence Unit (RLU) reading of about 1.5E7 and the response curve between 0 and 600 pmol is fitted to a polynomial function (see for example FIG. 2).” for “herbicide.”
as §3, §4

[3] = target: T3, SEQ ID NO 17, zmBX9 S117V, M279F, A334K mutant (Zea mays, UniProt B4G072, A334K/M279F/S117V); assay: as above; type: biochemical; conditions: for Activity: herbicide mM: V 0.300, VI 0.250, VII 0.210, IV, VIII, XI, XXI, XX, XVIII, XVI, XV, XIV 0.200, others 1.000
T3 construct: polypeptides were the C-terminally his-tagged; His tag (C); made in house
Description: as §1
as §2, with “herbicide. Typically, 300 pmol of UDP corresponds to a Relative Luminescence Unit (RLU) reading of about 1.5E7 and the response curve between 0 and 600 pmol is fitted to a polynomial function (see for example FIG. 2).” for “herbicide.”
as §3, §4
(§5) Variants of C-terminally his tagged SEQ ID No:1 (w/t bx9 from Zea mays), exemplified as SEQ ID 16-30, were cloned, purified and assayed as described in Example 1. FIG. 4 depicts the data from some experiments to determine the kinetic parameters of some of these variants in respect of herbicide VI and table 12 summarizes the estimates of kinetic parameters obtained from further such experiments in respect of a range of herbicides.
(§6) Table 13 summarizes the results obtained from assays, run as described in Example 1, using a variety of alcohol and aminal PSII herbicides as substrates of the Zea mays bx9 w/t (i.e. C-terminally his tagged SEQ ID no 1) and various mutants of the same, selected from SEQ ID NO: 16-30). All of these proteins were C-terminally his-tagged, expressed and purified as described in Example 1. Assays were run and analyzed as described in example 1. It is seen that various of the mutations herein and combinations thereof led to significant improvements (over the w/t bx9 protein) in catalytic activity versus various of the herbicides and that these improvements are often of sufficient magnitude to be useful for conferring improved herbicide tolerance upon crop. This is especially the case given that even the unmutated w/t bx9 enzyme which has only modest glucosyl transferase activity (for example against compounds V and VI) was nevertheless adequately active to confer significant herbicide tolerance in the glass house (as shown in example 9) even without mutational improvement. It is also seen that particular mutations can lead to very much improved activity in respect of some chemistries but not to others but that, overall, there is at least one variant within the scope of the current invention that provides significant and useful improvement in tolerance to each of the chemistries tested.

[4] = target: T4, SEQ ID NO 23, mutant of Zea mays bx9 glucosyl transferase (Zea mays, UniProt B4G072, A334K/F21Y/L194C/M279F/S117V); assay: as above; type: biochemical; conditions: lower block, concentration printed only in upper block: V 0.300, VII 0.210; IV, VIII, XI, XXI, XX, XVIII, XVI, XV, XIV 0.200; others 1.000 mM
T4 construct: His tag (C); made in house
Description: as §1
as §2, with “herbicide. Typically, 300 pmol of UDP corresponds to a Relative Luminescence Unit (RLU) reading of about 1.5E7 and the response curve between 0 and 600 pmol is fitted to a polynomial function (see for example FIG. 2).” for “herbicide.”
(§7) The UDP-Glo™ reagents are made up and used according to the manufacturer's instructions. Thus, Nucleotide Detection Buffer and ATP are combined to make nucleotide detection reagent (NDR) dispensed into aliquots and frozen to be freshly thawed before use. […]
as §6

[5] = target: T5, SEQ ID NO 19, mutant of Zea mays bx9 glucosyl transferase (Zea mays, UniProt B4G072, A281K/A334K/L194V/M279F/S117V); assay: as above; type: biochemical; conditions: herbicide mM: V 0.300, VI 0.250, VII 0.210; IV, VIII, XI, XXI, XX, XVIII, XVI, XV, XIV 0.200; others 1.000
T5 construct: His tag (C); made in house
Description: as §1
as §2, with “herbicide. Typically, 300 pmol of UDP corresponds to a Relative Luminescence Unit (RLU) reading of about 1.5E7 and the response curve between 0 and 600 pmol is fitted to a polynomial function (see for example FIG. 2).” for “herbicide.”
as §7, §6

[6] = target: T6, SEQ ID NO 22, mutant of Zea mays bx9 glucosyl transferase (Zea mays, UniProt B4G072, A334K/F21Y/M279F/S117V/T220P); assay: as above; type: biochemical; conditions: lower block, concentration printed only in upper block: V 0.300, VII 0.210; IV, VIII, XI, XXI, XX, XVIII, XVI, XV, XIV 0.200; others 1.000 mM
T6 construct: His tag (C); made in house
Description: as §1
as §2, with “herbicide. Typically, 300 pmol of UDP corresponds to a Relative Luminescence Unit (RLU) reading of about 1.5E7 and the response curve between 0 and 600 pmol is fitted to a polynomial function (see for example FIG. 2).” for “herbicide.”
as §3, §4, §5, §6

[7] = target: T7, SEQ ID NO 18, mutant of Zea mays bx9 glucosyl transferase (Zea mays, UniProt B4G072, A281K/A334K/F21Y/M279F/S117V); assay: as above; type: biochemical; conditions: herbicide mM: V 0.300, VI 0.250, VII 0.210; IV, VIII, XI, XXI, XX, XVIII, XVI, XV, XIV 0.200; others 1.000
T7 construct: His tag (C); made in house
Description: as §1
as §2, with “herbicide. Typically, 300 pmol of UDP corresponds to a Relative Luminescence Unit (RLU) reading of about 1.5E7 and the response curve between 0 and 600 pmol is fitted to a polynomial function (see for example FIG. 2).” for “herbicide.”
as §7, §6

[8] = UDP luminescence plate assay of E. coli extracts, mutants of SEQ ID No: 1, 2 mM metribuzin; type: biochemical, Zea mays; conditions: for SIGNAL: metribuzin signal of mutant divided by the signal of w/t bx9 / luminescence signal observed with 2 mM metribuzin: 2 mM metribuzin; for SIGNAL: metribuzin signal of mutant divided by the signal of w/t bx9: relative to bx9 w/t; for luminescence signal in the DMSO control: mutants of SEQ ID No: 1, DMSO in place of metribuzin (background UDP-glucose hydrolysis); for luminescence signal observed with 2 mM metribuzin: mutants of SEQ ID No: 1 in E. coli extracts, UDP luminescence
Procedure, shortened: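 Extracts of E. coli BL21 DE3 expressing C-terminally His-tagged SEQ ID NO:1 variants incubated with 2 mM metribuzin; UDP formed read by UDP-Glo luminescence against a UDP standard curve, with optional 95 C stop. Mutants ranked by metribuzin/DMSO signal ratio and signal increase over wild-type bx9.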

[9] = UDP luminescence plate assay of E. coli extracts, saturation mutants of SEQ ID NO: 1, herbicide V; type: biochemical, Zea mays; conditions: improvement factor relative to w/t bx9 = 1.0, rounded to nearest 0.5; extract activity basis; compound V

Molecule | Activity [1] [pmol/sec/pmol enzyme] | Activity [2] [pmol/sec/pmol enzyme] | SIGNAL: metribuzin signal of mutant divided by the signal of w/t bx9 [8] | luminescence signal in the DMSO control [8] | luminescence signal observed with 2 mM metribuzin [8] | Most Preferred amino acid substitutions and (IF) based on RLU/min/ul [9] | also measured
C[C@H]1C(O)N(c2cc(C(C)(C)F)ncn2)C(=O)N1C (some centres unmarked) [XIV] | 0.411 | −0.001 | – | – | – | – | Activity [3]: 0.037 pmol/sec/pmol enzyme; Activity [4]: 0.196 pmol/sec/pmol enzyme
COC1=C(C)C(O)N(c2cc(C(C)(C)C)ncn2)C1=O (centres unmarked) [X] | 0.137 | −0.001 | – | – | – | – | Activity [5]: 0.102 pmol/sec/pmol enzyme
C[C@@H]1C(O)N(c2cc(C(C)(C)C)on2)C(=O)N1C (some centres unmarked) [VII] | 0.049 | 0.000 | – | – | – | – | Activity [6]: 0.042 pmol/sec/pmol enzyme; Activity [7]: 0.087 pmol/sec/pmol enzyme
CN1CC(O)N(c2cc(C(F)(F)F)n(C)n2)C1=O (centres unmarked) [XII] | – | 0.007 | – | – | – | – | Activity [3]: 0.018 pmol/sec/pmol enzyme
CSc1nnc(C(C)(C)C)c(=O)n1N [metribuzin] | – | – | – | – | – | – | increase in activity over bx9 w/t protein [3]: 1.3-1.5 ×
CC1CC(O)N(c2ncc(C(F)(F)F)s2)C1=O (centres unmarked) [XVI] | 0.687 | – | – | – | – | – | Activity [6]: 0.285 pmol/sec/pmol enzyme; Activity [3]: 0.073 pmol/sec/pmol enzyme; Activity [7]: 0.359 pmol/sec/pmol enzyme
COc1ccc2c(c1)OC(O)C(=O)N2O (centres unmarked) [DIMBOA, 2,4-dihydroxy-7-methoxy-1,4-benzoxazin-3-one] | – | – | – | – | – | – | kcat ([2]; 0.5 mM UDP-glucose, 25 C, pH 7.5, DMSO reagent blank as control): 20.82 s⁻¹
B1 | – | – | 2.22 | 7.87E+05 | 6.21E+05 | 3.5 | –
B2 | – | – | 1.59 | 4.99E+05 | 4.44E+05 | 3.5 | –
B3 | – | – | 1.57 | 5.28E+05 | 4.40E+05 | H,P(4.0) | –
B4 | – | – | 1.82 | 5.47E+05 | 5.08E+05 | H,P(4.0) | –
